Measurements as given in ChEMBL document CHEMBL1201861, “Genomics of Drug Sensitity in Cancer screening data, Wellcome Trust Sanger Institute”.

How the values were obtained:
Assay in all cases: cells
BV-173 = assay type: functional, cell-based, Homo sapiens; conditions: Homo sapiens, BV-173
Description: SANGER: Inhibition of human BV-173 cell growth in a cell viability assay.

RCC10RGB = assay type: functional, cell-based, Homo sapiens; conditions: Homo sapiens, RCC10RGB;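 also: growth inhibition of human RCC10RGB cells, read out by a cell viability assay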
Description: SANGER: Inhibition of human RCC10RGB cell growth in a cell viability assay.

NCI-H446 = assay type: functional, cell-based, Homo sapiens; conditions: Homo sapiens, NCI-H446;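 also: growth inhibition of NCI-H446 cells determined by a cell viability assay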
Description: SANGER: Inhibition of human NCI-H446 cell growth in a cell viability assay.

KARPAS-45 = assay type: functional, cell-based, Homo sapiens; conditions: Homo sapiens, KARPAS-45;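 also: inhibition of cell line growth, read out through a viability assay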
Description: SANGER: Inhibition of human KARPAS-45 cell growth in a cell viability assay.

A388 = assay type: functional, cell-based; conditions: Homo sapiens;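 also: growth inhibition of human A388 cells, read out with a cell viability assay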
Description: SANGER: Inhibition of human A388 cell growth in a cell viability assay.

EW-1 = assay type: functional, cell-based, Homo sapiens; conditions: Homo sapiens, EW-1
Description: SANGER: Inhibition of human EW-1 cell growth in a cell viability assay.

HL-60 = assay type: functional, cell-based, Homo sapiens; conditions: Homo sapiens, HL-60;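 also: growth inhibition of human HL-60 cells, read out with a cell viability assay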
Description: SANGER: Inhibition of human HL-60 cell growth in a cell viability assay.

SK-MEL-1 = assay type: functional, cell-based, Homo sapiens; conditions: Homo sapiens, SK-MEL-1;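 also: growth inhibition of human SK-MEL-1 cells, read out by a cell viability assay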
Description: SANGER: Inhibition of human SK-MEL-1 cell growth in a cell viability assay.

NCI-H1581 = assay type: functional, cell-based, Homo sapiens; conditions: Homo sapiens, NCI-H1581;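 also: cell growth inhibition read out by a viability assay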
Description: SANGER: Inhibition of human NCI-H1581 cell growth in a cell viability assay.

HT = assay type: functional, cell-based, Homo sapiens; conditions: Homo sapiens, HT
Description: SANGER: Inhibition of human HT cell growth in a cell viability assay.

EW-11 = assay type: functional, cell-based, Homo sapiens; conditions: Homo sapiens, EW-11;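 also: growth inhibition of human EW-11 cells, measured with a cell viability assay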
Description: SANGER: Inhibition of human EW-11 cell growth in a cell viability assay.

NEC8 = assay type: functional, cell-based, Homo sapiens; conditions: Homo sapiens, NEC8;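 also: growth inhibition of human NEC8 cells, read out by a cell viability assay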
Description: SANGER: Inhibition of human NEC8 cell growth in a cell viability assay.

SK-UT-1 = assay type: functional, cell-based, Homo sapiens; conditions: Homo sapiens, SK-UT-1;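 also: growth inhibition of SK-UT-1 cells, measured by a cell viability assay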
Description: SANGER: Inhibition of human SK-UT-1 cell growth in a cell viability assay.

EKVX = assay type: functional, cell-based, Homo sapiens; conditions: Homo sapiens, EKVX;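 also: growth inhibition of human EKVX cells, read out with a cell viability assay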
Description: SANGER: Inhibition of human EKVX cell growth in a cell viability assay.

NCI-H2126 = assay type: functional, cell-based, Homo sapiens; conditions: Homo sapiens, NCI-H2126;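 also: growth inhibition of the cancer cell line, determined with a cell viability readout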
Description: SANGER: Inhibition of human NCI-H2126 cell growth in a cell viability assay.

A3-KAW = assay type: functional, cell-based, Homo sapiens; conditions: Homo sapiens, A3-KAW;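 also: growth inhibition of human A3-KAW cells, read out with a cell viability assay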
Description: SANGER: Inhibition of human A3-KAW cell growth in a cell viability assay.

SK-N-DZ = assay type: functional, cell-based, Homo sapiens; conditions: Homo sapiens, SK-N-DZ; read-out: IC50;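 also: growth inhibition of the cancer cell line, read out through a viability assay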
Description: SANGER: Inhibition of human SK-N-DZ cell growth in a cell viability assay.

Calu-6 = assay type: functional, cell-based, Homo sapiens; conditions: Homo sapiens, Calu-6;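 also: growth of human Calu-6 cells, read out by a cell viability assay, IC50 marking inhibition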
Description: SANGER: Inhibition of human Calu-6 cell growth in a cell viability assay.

CTB-1 = assay type: functional, cell-based, Homo sapiens; conditions: Homo sapiens, CTB-1
Description: SANGER: Inhibition of human CTB-1 cell growth in a cell viability assay.

NCI-H69 = assay type: functional, cell-based, Homo sapiens; conditions: Homo sapiens, NCI-H69;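 also: growth inhibition of the cell line, read out with a cell viability assay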
Description: SANGER: Inhibition of human NCI-H69 cell growth in a cell viability assay.

PSN1 = assay type: functional, cell-based, Homo sapiens; conditions: Homo sapiens, PSN1;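 also: suppression of growth of human PSN1 cells, read out by a cell viability assay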
Description: SANGER: Inhibition of human PSN1 cell growth in a cell viability assay.

TE-10 = assay type: functional, cell-based, Homo sapiens; conditions: Homo sapiens, TE-10;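 also: growth inhibition of TE-10 cells, measured by a cell viability assay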
Description: SANGER: Inhibition of human TE-10 cell growth in a cell viability assay.

SNU-5 = assay type: functional, cell-based, Homo sapiens; conditions: Homo sapiens, SNU-5;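 also: cell viability readout used to measure growth inhibition in human NCI-SNU-5 cells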
Description: SANGER: Inhibition of human NCI-SNU-5 cell growth in a cell viability assay.

TGBC1TKB = assay type: functional, cell-based, Homo sapiens; conditions: Homo sapiens, TGBC1TKB;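 also: growth inhibition of TGBC1TKB cells, read out by a cell viability assay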
Description: SANGER: Inhibition of human TGBC1TKB cell growth in a cell viability assay.

NCI-H23 = assay type: functional, cell-based, Homo sapiens; conditions: Homo sapiens, NCI-H23;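 also: cell viability assay measuring growth inhibition of NCI-H23 cells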
Description: SANGER: Inhibition of human NCI-H23 cell growth in a cell viability assay.

NKM-1 = assay type: functional, cell-based, Homo sapiens; conditions: Homo sapiens, NKM-1;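 also: growth inhibition of NKM-1 cells, read out with a cell viability assay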
Description: SANGER: Inhibition of human NKM-1 cell growth in a cell viability assay.

SW 954 = assay type: functional, cell-based, Homo sapiens; conditions: Homo sapiens, SW 954;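 also: growth inhibition of SW954 human cancer cells, read out as cell viability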
Description: SANGER: Inhibition of human SW954 cell growth in a cell viability assay.

Lu-65 = assay type: functional, cell-based, Homo sapiens; conditions: Homo sapiens, Lu-65;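 also: growth inhibition of Lu-65 cancer cells, read out by a cell viability assay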
Description: SANGER: Inhibition of human LU-65 cell growth in a cell viability assay.

LOX IMVI = assay type: functional, cell-based, Homo sapiens; conditions: Homo sapiens, LOX IMVI
Description: SANGER: Inhibition of human LOXIMVI cell growth in a cell viability assay.

JVM-2 = assay type: functional, cell-based, Homo sapiens; conditions: Homo sapiens, JVM-2;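 also: growth inhibition of JVM-2 cells determined by a cell viability assay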
Description: SANGER: Inhibition of human JVM-2 cell growth in a cell viability assay.

MZ2-MEL = assay type: functional, cell-based, Homo sapiens; conditions: Homo sapiens, MZ2-MEL;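 also: growth inhibition of MZ2-MEL cells read out with a cell viability assay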
Description: SANGER: Inhibition of human MZ2-MEL cell growth in a cell viability assay.

ALL-PO = assay type: functional, cell-based, Homo sapiens; conditions: Homo sapiens, ALL-PO;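 also: growth inhibition of ALL-PO cells, read out by a cell viability assay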
Description: SANGER: Inhibition of human ALL-PO cell growth in a cell viability assay.

D283 Med = assay type: functional, cell-based, Homo sapiens; conditions: Homo sapiens, D283 Med
Description: SANGER: Inhibition of human D-283MED cell growth in a cell viability assay.

OMC-1 = assay type: functional, cell-based, Homo sapiens; conditions: Homo sapiens, OMC-1;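 also: growth inhibition of the OMC-1 cell line, measured by a cell viability assay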
Description: SANGER: Inhibition of human OMC-1 cell growth in a cell viability assay.

KINGS-1 = assay type: functional, cell-based, Homo sapiens; conditions: Homo sapiens, KINGS-1;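 also: cell viability assay measuring suppression of KINGS-1 cell growth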
Description: SANGER: Inhibition of human KINGS-1 cell growth in a cell viability assay.

NCI-H1155 = assay type: functional, cell-based, Homo sapiens; conditions: Homo sapiens, NCI-H1155;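 also: cell growth inhibition measured by a viability assay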
Description: SANGER: Inhibition of human NCI-H1155 cell growth in a cell viability assay.

KNS-42 = assay type: functional, cell-based; conditions: Homo sapiens;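 also: growth inhibition of KNS-42 cells, read out with a cell viability assay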
Description: SANGER: Inhibition of human KNS-42 cell growth in a cell viability assay.

P30-OHK = assay type: functional, cell-based, Homo sapiens; conditions: Homo sapiens, P30-OHK;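 also: growth inhibition of the P30-OHK cell line, read out with a cell viability assay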
Description: SANGER: Inhibition of human P30-OHK cell growth in a cell viability assay.

DJM-1 = assay type: functional, cell-based, Homo sapiens; conditions: Homo sapiens, DJM-1;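 also: growth inhibition of human DJM-1 cells, read out by a cell viability assay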
Description: SANGER: Inhibition of human DJM-1 cell growth in a cell viability assay.

NCI-H82 = assay type: functional, cell-based, Homo sapiens; conditions: Homo sapiens, NCI-H82;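 also: growth inhibition of NCI-H82 cells, measured with a cell viability readout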
Description: SANGER: Inhibition of human NCI-H82 cell growth in a cell viability assay.

VA-ES-BJ = assay type: functional, cell-based, Homo sapiens; conditions: Homo sapiens, VA-ES-BJ;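 also: growth inhibition of the VA-ES-BJ cell line, read out by a cell viability assay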
Description: SANGER: Inhibition of human VA-ES-BJ cell growth in a cell viability assay.

HD-MY-Z = assay type: functional, cell-based, Homo sapiens; conditions: Homo sapiens, HD-MY-Z;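 also: growth inhibition of HD-MY-Z cells, read out with a cell viability assay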
Description: SANGER: Inhibition of human HD-MY-Z cell growth in a cell viability assay.

MEG-01 = assay type: functional, cell-based, Homo sapiens; conditions: Homo sapiens, MEG-01;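 also: growth inhibition of MEG-01 cells, read out by a cell viability assay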
Description: SANGER: Inhibition of human MEG-01 cell growth in a cell viability assay.

DOHH-2 = assay type: functional, cell-based, Homo sapiens; conditions: Homo sapiens, DOHH-2;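 also: growth inhibition of human DOHH-2 cells, read out with a cell viability assay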
Description: SANGER: Inhibition of human DOHH-2 cell growth in a cell viability assay.

SBC-1 = assay type: functional, cell-based, Homo sapiens; conditions: Homo sapiens, SBC-1;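 also: cell viability assay measuring growth inhibition of the SBC-1 cell line, IC50 being the concentration that halves growth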
Description: SANGER: Inhibition of human SBC-1 cell growth in a cell viability assay.

TE-8 = assay type: functional, cell-based, Homo sapiens; conditions: Homo sapiens, TE-8;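 also: growth inhibition of TE-8 cells, measured with a cell viability readout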
Description: SANGER: Inhibition of human TE-8 cell growth in a cell viability assay.

RPMI-8226 = assay type: functional, cell-based, Homo sapiens; conditions: Homo sapiens, RPMI-8226
Description: SANGER: Inhibition of human RPMI-8226 cell growth in a cell viability assay.

HT-144 = assay type: functional, cell-based, Homo sapiens; conditions: Homo sapiens, HT-144
Description: SANGER: Inhibition of human HT-144 cell growth in a cell viability assay.

NCI-H1092 = assay type: functional, cell-based, Homo sapiens; conditions: Homo sapiens, NCI-H1092;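 also: cell growth inhibition measured with a cell viability assay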
Description: SANGER: Inhibition of human NCI-H1092 cell growth in a cell viability assay.

In the case of `CC1(C)CCC(c2ccc(Cl)cc2)=C(CN2CCN(c3ccc(C(=O)NS(=O)(=O)c4ccc(N[C@H](CCN5CCOCC5)CSc5ccccc5)c(S(=O)(=O)C(F)(F)F)c4)cc3)CC2)C1` [NAVITOCLAX], the IC50 (BV-173) is reported as 0.0231 µM, the IC50 (RCC10RGB) is reported as > 2 µM and the IC50 (NCI-H446) is reported as > 2 µM. The IC50 (KARPAS-45) was 0.0781 µM, the IC50 (A388) was 1.69 µM and the IC50 (EW-1) was > 2 µM. For the same molecule, the IC50 (HL-60) was 0.0291 µM, the IC50 (SK-MEL-1) was > 2 µM and the IC50 (NCI-H1581) was > 2 µM. For the same molecule, the IC50 (HT) was > 2 µM, the IC50 (EW-11) was 1.96 µM and the IC50 (NEC8) was > 2 µM. The IC50 (SK-UT-1) was > 2 µM, the IC50 (EKVX) was > 2 µM and the IC50 (NCI-H2126) was > 2 µM. For the same molecule, the IC50 (A3-KAW) was > 2 µM, the IC50 (SK-N-DZ) was > 2 µM and the IC50 (Calu-6) was > 2 µM. For the same molecule, the IC50 (CTB-1) was > 2 µM, the IC50 (NCI-H69) was > 2 µM and the IC50 (PSN1) was > 2 µM. The IC50 (TE-10) was > 2 µM, the IC50 (SNU-5) was > 2 µM and the IC50 (TGBC1TKB) was 1.14 µM. The IC50 (NCI-H23) was > 2 µM, the IC50 (NKM-1) was 0.017 µM and the IC50 (SW 954) was > 2 µM. The IC50 (Lu-65) was > 2 µM, the IC50 (LOX IMVI) was > 2 µM and the IC50 (JVM-2) was > 2 µM. For the same molecule, the IC50 (MZ2-MEL) was > 2 µM, the IC50 (ALL-PO) was 0.22 µM and the IC50 (D283 Med) was 0.177 µM. The IC50 (OMC-1) was 1.86 µM, the IC50 (KINGS-1) was > 2 µM and the IC50 (NCI-H1155) was > 2 µM. For the same molecule, the IC50 (KNS-42) was > 2 µM, the IC50 (P30-OHK) was 1.05 µM and the IC50 (DJM-1) was > 2 µM. For the same molecule, the IC50 (NCI-H82) was > 2 µM, the IC50 (VA-ES-BJ) was > 2 µM and the IC50 (HD-MY-Z) was > 2 µM. It also gave an IC50 (MEG-01) of 0.583 µM, an IC50 (DOHH-2) of 0.41 µM and an IC50 (SBC-1) of 1.19 µM. For the same molecule, the IC50 (TE-8) was > 2 µM, the IC50 (RPMI-8226) was 0.457 µM and the IC50 (HT-144) was > 2 µM. The IC50 (NCI-H1092) was 0.103 µM.

In the case of `C/C(=C\c1csc(C)n1)[C@@H]1C[C@@H]2O[C@]2(C)CCC[C@H](C)[C@H](O)[C@@H](C)C(=O)C(C)(C)[C@@H](O)CC(=O)O1` [PATUPILONE], the IC50 (BV-173) is reported as > 0.032 µM, the IC50 (RCC10RGB) is reported as 0.0197 µM and the IC50 (NCI-H446) is reported as 0.0214 µM. It also gave an IC50 (KARPAS-45) of 0.00582 µM, an IC50 (A388) of 0.00094 µM and an IC50 (EW-1) of 0.0019 µM. The IC50 (HL-60) was 0.005 µM, the IC50 (SK-MEL-1) was > 0.032 µM and the IC50 (NCI-H1581) was > 0.032 µM. For the same molecule, the IC50 (HT) was 0.0205 µM, the IC50 (EW-11) was > 0.032 µM and the IC50 (NEC8) was 0.00353 µM. The IC50 (SK-UT-1) was 0.000892 µM, the IC50 (EKVX) was > 0.032 µM and the IC50 (NCI-H2126) was 0.0156 µM. It also gave an IC50 (A3-KAW) of 0.00606 µM, an IC50 (SK-N-DZ) of 0.00759 µM and an IC50 (Calu-6) of 0.00714 µM. For the same molecule, the IC50 (CTB-1) was 0.00831 µM, the IC50 (NCI-H69) was 0.0148 µM and the IC50 (PSN1) was 0.000173 µM. The IC50 (TE-10) was 0.000719 µM, the IC50 (SNU-5) was 0.0304 µM and the IC50 (TGBC1TKB) was > 0.032 µM. The IC50 (NCI-H23) was 0.0238 µM, the IC50 (NKM-1) was 0.0021 µM and the IC50 (SW 954) was 0.000436 µM. For the same molecule, the IC50 (Lu-65) was 0.021 µM, the IC50 (LOX IMVI) was > 0.032 µM and the IC50 (JVM-2) was > 0.032 µM. For the same molecule, the IC50 (MZ2-MEL) was 0.00215 µM, the IC50 (ALL-PO) was 0.00147 µM and the IC50 (D283 Med) was > 0.032 µM. For the same molecule, the IC50 (OMC-1) was > 0.032 µM, the IC50 (KINGS-1) was > 0.032 µM and the IC50 (NCI-H1155) was > 0.032 µM. The IC50 (KNS-42) was 0.00391 µM, the IC50 (P30-OHK) was 0.00449 µM and the IC50 (DJM-1) was 0.00313 µM. For the same molecule, the IC50 (NCI-H82) was > 0.032 µM, the IC50 (VA-ES-BJ) was 0.00435 µM and the IC50 (HD-MY-Z) was 0.0233 µM. The IC50 (MEG-01) was 0.00153 µM, the IC50 (DOHH-2) was 0.00837 µM and the IC50 (SBC-1) was > 0.032 µM. The IC50 (TE-8) was 0.000111 µM, the IC50 (RPMI-8226) was 0.00671 µM and the IC50 (HT-144) was 0.00172 µM. For the same molecule, the IC50 (NCI-H1092) was > 0.032 µM.
